Experimental data as given in ChEMBL document CHEMBL5537200, “Discovery of Artemisinins as Microsomal Prostaglandins Synthase-2 Inhibitors for the Treatment of Colorectal Cancer via Chemoproteomics” (J Med Chem, 2024).
Activity calls are given as the source filed them. The rule behind the calls is not given here.

How the values were obtained:
HCT-116 [1] = assay: Antiproliferative activity against human HCT-116 cells assessed as inhibition of cell growth by Cell-titer Glo luminescent assay; type: functional, cell-based
HCT-116 [2] = assay: Growth inhibition of human HCT-116 cells incubated for 72 hrs by Cell-titer Glo luminescent assay; type: functional
HCT-116 [3] = assay: Growth inhibition of human HCT-116 cells incubated for 48 hrs by Cell-titer Glo luminescent assay; type: functional
HCT-116 [4] = assay: Growth inhibition of human HCT-116 cells incubated for 24 hrs by Cell-titer Glo luminescent assay; type: functional
[5] = target: T1, Prostaglandin E synthase 2 (Homo sapiens, UniProt Q9H7Z7); assay: Inhibition of mPGES-2 in human HCT-116 cells assessed as downregulation of mPGES-2 expression at 10 uM incubated for 3 hrs under UV irradiation by SDS-PAGE based pull-down assay; type: cell-based
[6] = target: T1, Prostaglandin E synthase 2; assay: Binding affinity to heme-free recombinant mPGES-2 (unknown origin) at 1 uM incubated for 1 hr pretreated with PGH2 addition by competitive labeling gel fluorescence assay
[7] = target: T1, Prostaglandin E synthase 2; details: HCT-116, dose 20.0 µM, time 2.0 hrs
[8] = target: T1, Prostaglandin E synthase 2; assay: Binding affinity to heme-free recombinant mPGES-2 (unknown origin) at 1 uM incubated for 1 hr pretreated with GSH addition by competitive labeling gel fluorescence assay
[9] = target: T1, Prostaglandin E synthase 2; assay: Binding affinity to heme-bound recombinant mPGES-2 (unknown origin) at 1 uM in presence of H2O2 without UV irradiation by coomassie blue staining assay
[10] = target: T1, Prostaglandin E synthase 2; assay: Binding affinity to heme-free recombinant mPGES-2 (unknown origin) at 1 uM in presence of H2O2 under UV irradiation by coomassie blue staining assay
[11] = target: T1, Prostaglandin E synthase 2; assay: Binding affinity to heme-bound recombinant mPGES-2 (unknown origin) at 1 uM in presence of H2O2 under UV irradiation by coomassie blue staining assay
[12] = target: T1, Prostaglandin E synthase 2; assay: Binding affinity to heme-free recombinant mPGES-2 (unknown origin) at 1 uM incubated for 1 hr followed by ART addition for 30 mins by competitive labeling gel fluorescence assay; details: time 1.5 hrs
[13] = target: T1, Prostaglandin E synthase 2; assay: Inhibition of mPGES-2 in human HCT-116 cells assessed as downregulation of mPGES-2 expression at 10 uM incubated for 3 hrs by SDS-PAGE based pull-down assay; type: cell-based
[14] = target: T1, Prostaglandin E synthase 2; assay: Binding affinity to heme-bound recombinant mPGES-2 (unknown origin) at 1 uM in presence of NaVc under UV irradiation by coomassie blue staining assay
[15] = target: T1, Prostaglandin E synthase 2; assay: Binding affinity to heme-free recombinant mPGES-2 (unknown origin) at 1 uM in presence of NaVc under UV irradiation by coomassie blue staining assay
[16] = target: T1, Prostaglandin E synthase 2; assay: Binding affinity to heme-free recombinant mPGES-2 (unknown origin) at 1 uM under UV irradiation by coomassie blue staining assay
[17] = target: T1, Prostaglandin E synthase 2; assay: Inhibition of heme-free recombinant mPGES-2 (unknown origin) at 100 uM by dilution assay relative to control
[18] = target: T1, Prostaglandin E synthase 2; assay: Inhibition of heme-free recombinant mPGES-2 (unknown origin) pre-incubated with compound for 15 mins followed by PGH2 addition measured after 1 min by ELISA
[19] = target: T1, Prostaglandin E synthase 2; assay: Inhibition of heme-free recombinant mPGES-2 (unknown origin) pre-incubated with compound for 15 mins followed by PGH2 addition measured after 60 min by ELISA
HCT-116 [20] = assay: cells; details: Homo sapiens, HCT-116, 48 h, read-out: INH
Description: Antiproliferative activity against human HCT-116 cells assessed as inhibition of cell growth at 50 uM incubated for 48 hrs in presence of succinylacetone by Cell-titer Glo luminescent assay relative to control

SW-620 [21] = assay: cells; details: Homo sapiens, SW-620, 48 h, read-out: INH
Description: Antiproliferative activity against human SW620 cells assessed as inhibition of cell growth at 50 uM incubated for 48 hrs in presence of succinylacetone by Cell-titer Glo luminescent assay relative to control

[22] = target: T1, Prostaglandin E synthase 2; assay: Inhibition of heme-free recombinant mPGES-2 (unknown origin) pre-incubated with compound for 15 mins followed by PGH2 addition measured after 10 min by ELISA
SW-620 [23] = assay: Antiproliferative activity against human SW620 cells assessed as inhibition of cell growth at 50 uM incubated for 48 hrs in presence of aminolevulinic acid by Cell-titer Glo luminescent assay; type: functional, cell-based
[24] = target: T1, Prostaglandin E synthase 2; assay: Inhibition of heme-free recombinant mPGES-2 (unknown origin) pre-incubated with compound for 15 mins followed by PGH2 addition measured after 30 min by ELISA
SW-620 [25] = assay: Antiproliferative activity against human SW620 cells assessed as inhibition of cell growth incubated for 48 hrs by Cell-titer Glo luminescent assay; type: functional, cell-based
HCT-116 [26] = assay: Antiproliferative activity against human HCT-116 cells assessed as reduction in cell growth at 10 to 20 uM by Cell-titer Glo luminescent assay; type: functional, cell-based; details: dose 10-20 µM
HCT-116 [27] = assay: Antiproliferative activity against human HCT-116 cells assessed as inhibition of cell growth incubated for 48 hrs by Cell-titer Glo luminescent assay; type: functional, cell-based
HCT-116 [28] = assay: Antiproliferative activity against human HCT-116 cells assessed as reduction in cell growth at 50 uM by Cell-titer Glo luminescent assay; type: functional, cell-based
HCT-116 [29] = assay: Antiproliferative activity against human HCT-116 cells assessed as inhibition of cell growth at 50 uM incubated for 48 hrs in presence of aminolevulinic acid by Cell-titer Glo luminescent assay; type: functional, cell-based
HCT-116 [30] = assay: Antiproliferative activity against SiRNA mediated mPGES-2 knockdown human HCT-116 cells assessed as reduction in cell growth by Cell-titer Glo luminescent assay; type: functional, cell-based
[31] = target: T1, Prostaglandin E synthase 2; assay: Inhibition of heme-free recombinant mPGES-2 (unknown origin) pre-incubated with compound for 15 mins followed by PGH2 addition measured after 5 min by ELISA
[32] = target: T1, Prostaglandin E synthase 2
Description: Displacement of ART-P1 from heme-free recombinant mPGES-2 (unknown origin) assessed as inhibition of ART-P1 binding to mPGES-2 incubated for 1 hr followed by ART-P1 addition for 30 mins by competitive labeling gel fluorescence assay

Caco-2 = assay: Antiproliferative activity against human Caco-2 cells assessed as inhibition of cell growth at 50 uM incubated for 48 hrs in presence of aminolevulinic acid by Cell-titer Glo luminescent assay; type: functional, cell-based

T1 sequence (Q9H7Z7 whole entry): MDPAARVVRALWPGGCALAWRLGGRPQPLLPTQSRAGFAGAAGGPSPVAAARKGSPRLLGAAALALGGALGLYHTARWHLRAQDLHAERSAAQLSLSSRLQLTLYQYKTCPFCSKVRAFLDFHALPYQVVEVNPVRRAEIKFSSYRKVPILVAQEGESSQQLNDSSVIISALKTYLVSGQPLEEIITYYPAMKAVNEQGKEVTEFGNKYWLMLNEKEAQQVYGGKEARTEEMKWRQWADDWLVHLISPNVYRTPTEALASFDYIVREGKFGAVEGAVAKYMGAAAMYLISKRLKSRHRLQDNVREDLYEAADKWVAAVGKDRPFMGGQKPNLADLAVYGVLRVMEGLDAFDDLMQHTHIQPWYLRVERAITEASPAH

`C[C@H]1[C@@H](CCCO)O[C@@H]2O[C@]3(C)CC[C@H]4[C@H](C)CC[C@@H]1[C@@]24OO3` gave an IC50 (HCT-116 [1]) of 38.1 µM.

`C[C@H]1[C@@H](OC(=O)c2ccccc2)O[C@@H]2O[C@]3(C)CC[C@H]4[C@H](C)CC[C@@H]1[C@@]24OO3` was tested, and the IC50 (HCT-116 [1]) was 3.9 µM.

Work on `C=CC[C@H]1O[C@@H]2O[C@]3(C)CC[C@H]4[C@H](C)CC[C@@H]([C@H]1C)[C@@]24OO3` yielded an IC50 (HCT-116 [1]) of 8.5 µM.

`C#CCCC1(CCN2CCN(CCC[C@H]3O[C@@H]4O[C@]5(C)CC[C@H]6[C@H](C)CC[C@@H]([C@H]3C)[C@@]46OO5)CC2)N=N1` gave a GI50 (HCT-116 [2]) of 22.5 µM, a GI50 (HCT-116 [3]) of 35.9 µM and a GI50 (HCT-116 [4]) of 53.1 µM.

For `C#CCN(CCC[C@H]1O[C@@H]2O[C@]3(C)CC[C@H]4[C@H](C)CC[C@@H]([C@H]1C)[C@@]24OO3)C(=O)CCC1(C)N=N1`, the inhibition [5] was “Active”, the Activity [6] was “inactive” and the Tm [7] was 46.9 °C. For the same compound, the Activity [8] was “Active”, the Activity [9] was “inactive” and the Activity [10] was “inactive”. The GI50 (HCT-116 [2]) was 3.9 µM, the Activity [11] was “inactive” and the Activity [12] was “inactive”. The inhibition [13] was “Active”, the Activity [14] was “Active” and the Activity [15] was “inactive”. For the same compound, the GI50 (HCT-116 [3]) was 5.1 µM, the GI50 (HCT-116 [4]) was 13.4 µM and the Activity [16] was “Active”.

`C[C@H]1[C@@H](CCCN2CCNCC2)O[C@@H]2O[C@]3(C)CC[C@H]4[C@H](C)CC[C@@H]1[C@@]24OO3` gave an IC50 (HCT-116 [1]) greater than 50 µM.

With `NC(=O)CI` the inhibition [17] was “inactive”.

With `CO[C@H]1O[C@@H]2O[C@@]3(C)CC[C@H]4[C@H](C)CC[C@@H]([C@H]1C)[C@@]24OO3` [ARTEMETHER] the IC50 (HCT-116 [1]) was 8.6 µM.

In the case of `C[C@@H]1CC[C@H]2[C@@H](C)C(=O)O[C@@H]3O[C@@]4(C)CC[C@@H]1[C@]32OO4` [ARTEMISININ], the IC50 (HCT-116 [1]) is reported as 7.2 µM, the IC50 [18] is reported as 10.8 µM and the IC50 [19] is reported as 8.8 µM. It also gave an inhibition at 50 µM (HCT-116 [20]) greater than 50%, a Tm [7] of 62.5 °C and an inhibition at 50 µM (SW-620 [21]) greater than 50%. The IC50 [22] was 10.3 µM, the Activity (SW-620 [23]) was “inactive” and the IC50 [24] was 8.9 µM. The Activity (SW-620 [25]) was “Active”, the Activity (HCT-116 [26]) was “Active” and the Activity (HCT-116 [27]) was “Active”. For the same compound, the Activity (HCT-116 [28]) was “Active”, the GI50 (HCT-116 [2]) was 4.3 µM and the Activity (HCT-116 [29]) was “inactive”. For the same compound, the Activity (HCT-116 [30]) was “inactive”, the IC50 [31] was 9.9 µM and the IC50 [32] was 8.8 µM. For the same compound, the GI50 (HCT-116 [3]) was 7.2 µM, the GI50 (HCT-116 [4]) was 22.5 µM and the Activity (Caco-2) was “inactive”.

Compound `C[C@H]1[C@@H](O)O[C@@H]2O[C@@]3(C)CC[C@H]4[C@H](C)CC[C@@H]1[C@@]24OO3` [ARTENIMOL] has an IC50 (HCT-116 [1]) of 13.6 µM.

`C[C@H]1[C@H](OC(=O)CCC(=O)O)O[C@@H]2O[C@@]3(C)CC[C@H]4[C@H](C)CC[C@@H]1[C@@]24OO3` [ARTESUNATE] gave an IC50 (HCT-116 [1]) of 0.46 µM.

Compound `C[C@@H]1CC[C@H]2[C@@H](C)C(=O)O[C@@H]3O[C@@]4(C)CC[C@@H]1[C@]32O4` [DEOXYARTEMISININ] has an IC50 (HCT-116 [1]) greater than 50 µM, a Tm [7] of 63.4 °C and an IC50 [32] greater than 50 µM.
